Test results taken from patent US8436023B2, “Cyclohexyl-azetidinyl antagonists of CCR2” (Janssen Pharmaceutica N.V., priority 2010, dated 2013).

target: T1, CCR2 (Homo sapiens, UniProt P41597); assay: MCP-1 Receptor Binding Assay in THP-1 Cells; details: 0.5 nM 125I labeled MCP-1, 2 hours at 30° C., less polar isomer tested where stated, read-out: Inhibition of MCP-1 Binding IC50, CCR2 Binding
T1 construct: host or cells: THP-1 human monocytic cells
T1 sequence (P41597 1-360 isoform P41597-2): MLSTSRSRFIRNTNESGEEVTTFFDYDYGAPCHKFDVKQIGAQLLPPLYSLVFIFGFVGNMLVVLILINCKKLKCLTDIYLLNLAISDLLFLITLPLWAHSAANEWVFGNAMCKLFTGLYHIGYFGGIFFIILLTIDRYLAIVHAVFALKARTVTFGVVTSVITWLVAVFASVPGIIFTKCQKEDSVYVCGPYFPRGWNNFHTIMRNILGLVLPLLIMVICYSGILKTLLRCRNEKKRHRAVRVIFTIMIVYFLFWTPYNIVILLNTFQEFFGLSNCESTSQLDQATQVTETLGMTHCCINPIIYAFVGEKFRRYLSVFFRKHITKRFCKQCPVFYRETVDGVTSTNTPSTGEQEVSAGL
Protocol: MCP-1 Receptor Binding Assay in THP-1 Cells
Human monocytic cell line THP-1 cells were obtained from American Type Culture Collection (Manassas, Va., USA). The THP-1 cells were grown in RPMI-1640 (RPMI: Roswell Park Memorial Institute Medium-cell culture growth media) supplemented with 10% fetal bovine serum in a humidified 5% CO2 atmosphere at 37° C. The cell density was maintained […].
THP-1 (cells were incubated with 0.5 nM ^125I labeled MCP-1 (Perkin-Elmer Life Sciences, Inc. Boston, Mass.) in the presence of varying concentrations of either unlabeled MCP-1 (R & D Systems, Minneapolis, Minn.) or test compound for 2 hours at 30° C. in a 96 well plate. Cells were then harvested onto a filter plate, dried, and 20 μL of Microscint 20 was added to each well. Plates were counted in a TopCount NXT, Microplate Scintillation & Luminescence Counter (Perkin-Elmer Life Sciences, Inc. Boston, Mass.). Blank values (buffer only) were subtracted from all values and drug treated values were compared to vehicle treated values. 1 μM cold MCP-1 was used for nonspecific binding.
Where an IC50 value was not obtained for a particular compound, the percent inhibition is provided at a test concentration of 25 μM.

SMILES	IC50 [nM]
CC(C)(C)NC(=O)n1nc(NCC(=O)NC2CN(C3CCC(O[Si](C)(C)C(C)(C)C)CC3)C2)c2cc(C(F)(F)F)ccc21 (stereo not drawn) [Example 84, 3-[({1-[4-(tert-Butyl-dimethyl-silanyloxy)-cyclohexyl]-azetidin-3-ylcarbamoyl}-methyl)-amino]-5-trifluoromethyl-indazole-1-carboxylic acid tert-butylamide]	870
CCOC(=O)C1CCC(N2CC(NC(=O)CNc3nn(C(=O)NC(C)(C)C)c4ccc(C(F)(F)F)cc34)C2)CC1 (stereo not drawn) [Example 88, 4-{3-[2-(1-tert-Butylcarbamoyl-5-trifluoromethyl-1H-indazol-3-ylamino)-acetylamino]-azetidin-1-yl}-cyclohexanecarboxylic acid ethyl ester]	360
C=CCn1nc(NCC(=O)NC2CN(C3CCC(C4CCCCC4)CC3)C2)c2cc(C(F)(F)F)ccc21 (stereo not drawn) [Example 95, 2-(1-Allyl-5-trifluoromethyl-1H-indazol-3-ylamino)-N-(1-bicyclohexyl-4-yl-azetidin-3-yl)-acetamide]	3600
Cn1nc(NCC(=O)NC2CN(C3CCC(O)(c4cncs4)CC3)C2)c2cc(C(F)C(F)(F)F)ccc21 (stereo not drawn) [Example 65, N-[1-(4-Hydroxy-4-thiazol-5-yl-cyclohexyl)-azetidin-3-yl]-2-[1-methyl-5-(1,2,2,2-tetrafluoro-ethyl)-1H-indazol-3-ylamino]-acetamide]	100
Cc1ccc(C2(O)CCC(N3CC(NC(=O)CNc4nn(C)c5ccc(OCC(F)(F)F)cc45)C3)CC2)cn1 (stereo not drawn) [Example 101]	1100
CCOC(=O)C1CCC(N2CC(NC(=O)CNc3nn(Cc4ccccc4)c4ccc(C(F)(F)F)cc34)C2)CC1 (stereo not drawn) [Example 97, 4-{3-[2-(1-Benzyl-5-trifluoromethyl-1H-indazol-3-ylamino)-acetylamino]-azetidin-1-yl}-cyclohexane carboxylic acid ethyl ester]	170
CCC(O)[C@H]1CC[C@H](N2CC(NC(=O)CNc3n[nH]c4ncc(C(F)(F)F)cc34)C2)CC1 (single isomer, unassigned) [Example 106]	330
CCc1ncc(C2(O)CCC(N3CC(NC(=O)CNc4nn(CC(F)(F)F)c5ccc(C(F)(F)F)cc45)C3)CC2)s1 (stereo not drawn) [Example 73, N-{1-[4-(2-Ethyl-thiazol-5-yl)-4-hydroxy-cyclohexyl]-azetidin-3-yl}-2-[1-(2,2,2-trifluoro-ethyl)-5-trifluoromethyl-1H-indazol-3-ylamino]-acetamide]	160
CCCC1CCC(N2CC(NC(=O)CNc3noc4ccc(C(F)(F)F)cc34)C2)CC1 (stereo not drawn) [Example 14, N-[1-(4-Propyl-cyclohexyl)-azetidin-3-yl]-2-(5-trifluoromethyl-benzo[d]isoxazol-3-ylamino)-acetamide]	360
CCOC(=O)C1CCC(N2CC(NC(=O)CNc3nn(C)c4ccc(C(O)C(F)(F)F)cc34)C2)CC1 (stereo not drawn) [Example 60, 4-(3-{2-[1-Methyl-5-(2,2,2-trifluoro-1-hydroxy-ethyl)-1H-indazol-3-ylamino]-acetylamino}-azetidin-1-yl)-cyclohexanecarboxylic acid ethyl ester]	2090
O=C(CNc1noc2ccc(C(F)(F)F)cc12)NC1CN(C2CCC(O)CC2)C1 (stereo not drawn) [Example 9, N-[1-(4-Hydroxy-cyclohexyl)-azetidin-3-yl]-2-(5-trifluoromethyl-benzo[d]isoxazol-3-ylamino)-acetamide]	770
Cn1cc(C2(O)CCC(N3CC(NC(=O)CNc4nn(C)c5ccc(C(F)(F)F)cc45)C3)CC2)cn1 (stereo not drawn) [Example 25, N-{1-[4-Hydroxy-4-(1-methyl-1H-pyrazol-4-yl)-cyclohexyl]-azetidin-3-yl}-2-(1-methyl-5-trifluoromethyl-1H-indazol-3-ylamino)-acetamide]	200

Stronger by IC50, values ahead:

IC50 [nM]	SMILES
63	O=C(CNc1n[nH]c2ccc(C(F)(F)F)cc12)NC1CN(C2CCC(n3ccccc3=O)CC2)C1 (stereo not drawn) [Example 53, N-{1-[4-(2-Oxo-2H-pyridin-1-yl)-cyclohexyl]-azetidin-3-yl}-2-(5-trifluoromethyl-1H-indazol-3-ylamino)-acetamide]
53	C=CCn1nc(NCC(=O)NC2CN(C3CCC(C(=O)OCC)CC3)C2)c2cc(C(F)(F)F)ccc21 (stereo not drawn) [Example 94, 4-{3-[2-(1-Allyl-5-trifluoromethyl-1H-indazol-3-ylamino)-acetylamino]-azetidin-1-yl}-cyclohexanecarboxylic acid ethyl ester]
51	CCn1nc(NCC(=O)NC2CN(C3CCC(O)(c4nccs4)CC3)C2)c2cc(C(F)(F)F)ccc21 (stereo not drawn) [Example 68, 2-(1-Ethyl-5-trifluoromethyl-1H-indazol-3-ylamino)-N-[1-(4-hydroxy-4-thiazol-2-yl-cyclohexyl)-azetidin-3-yl]-acetamide]
33	COc1ccc(C2(O)CCC(N3CC(NC(=O)CNc4nn(C)c5ccc(C(F)(OC)C(F)(F)F)cc45)C3)CC2)cn1 (stereo not drawn) [Example 102, N-{1-[4-Hydroxy-4-(6-methoxy-pyridin-3-yl)-cyclohexyl]-azetidin-3-yl}-2-[1-methyl-5-(1,2,2,2-tetrafluoro-1-methoxy-ethyl)-1H-indazol-3-ylamino]-acetamide]
29	CC(C)NC(=O)n1nc(NCC(=O)NC2CN(C3CCC(c4ccccc4)CC3)C2)c2cc(C(F)(F)F)ccc21 (stereo not drawn) [Example 90, 3-({[1-(4-Phenyl-cyclohexyl)-azetidin-3-ylcarbamoyl]-methyl}-amino)-5-trifluoromethyl-indazole-1-carboxylic acid isopropylamide]
29	O=C(CNc1nn(CCO)c2ccc(C(F)(F)F)cc12)NC1CN(C2CCC(O)(c3cncs3)CC2)C1 (stereo not drawn) [Example 76]
29	CCOC(=O)C1CCC(N2CC(NC(=O)CNc3noc4ccc(C(F)(F)F)cc34)C2)CC1 (stereo not drawn) [Example 6, 4-{3-[2-(5-Trifluoromethyl-benzo[d]isoxazol-3-ylamino)-acetylamino]-azetidin-1-yl}-cyclohexanecarboxylic acid ethyl ester]
23	COc1ccc(C2(O)CCC(N3CC(NC(=O)CNc4noc5ccc(C(F)(F)F)cc45)C3)CC2)cn1 (stereo not drawn) [Example 2, N-{1-[4-Hydroxy-4-(6-methoxy-pyridin-3-yl)-cyclohexyl]-azetidin-3-yl}-2-(5-trifluoromethyl-benzo[d]isoxazol-3-ylamino)-acetamide]
22	CCOc1ccc(C2(O)CCC(N3CC(NC(=O)CNc4nn(C(N)=O)c5ccc(C(F)(F)F)cc45)C3)CC2)cn1 (stereo not drawn) [Example 83, 3-[({1-[4-(6-Ethoxy-pyridin-3-yl)-4-hydroxy-cyclohexyl]-azetidin-3-ylcarbamoyl}-methyl)-amino]-5-trifluoromethyl-indazole-1-carboxylic acid amide]
16	COc1ccc(C2(O)CCC(N3CC(NC(=O)CNc4n[nH]c5ccc(C(F)(F)F)cc45)C3)CC2)cn1 (stereo not drawn) [Example 44, N-{1-[4-Hydroxy-4-(6-methoxy-pyridin-3-yl)-cyclohexyl]-azetidin-3-yl}-2-(5-trifluoromethyl-1H-indazol-3-ylamino)-acetamide]
12	NC(=O)Cc1ccc(C2CCC(N3CC(NC(=O)CNc4n[nH]c5ccc(C(F)(F)F)cc45)C3)CC2)cc1 (stereo not drawn) [Example 47, 2-[4-(4-{3-[2-(5-Trifluoromethyl-1H-indazol-3-ylamino)-acetylamino]-azetidin-1-yl}-cyclohexyl)-phenyl]-acetamide]
10	O=C(CNc1noc2ccc(OC(F)(F)F)cc12)NC1CN(C2CCC(c3ccc4c(c3)OCO4)CC2)C1 (stereo not drawn) [Example 15, N-[1-(4-Benzo[1,3]dioxol-5-yl-cyclohexyl)-azetidin-3-yl]-2-(5-trifluoromethoxy-benzo[d]isoxazol-3-ylamino)-acetamide]
8.6	CCn1nc(NCC(=O)NC2CN(C3CCC(O)(c4cnc(C)s4)CC3)C2)c2cc(C(F)(F)F)ccc21 (stereo not drawn) [Example 69, 2-(1-Ethyl-5-trifluoromethyl-1H-indazol-3-ylamino)-N-{1-[4-hydroxy-4-(2-methyl-thiazol-5-yl)-cyclohexyl]-azetidin-3-yl}-acetamide]
5.3	CC(C)c1ncc(C2(O)CCC(N3CC(NC(=O)CNc4nn(C)c5ccc(C(F)(F)F)cc45)C3)CC2)s1 (stereo not drawn) [Example 24, N-{1-[4-Hydroxy-4-(2-isopropyl-thiazol-5-yl)-cyclohexyl]-azetidin-3-yl}-2-(1-methyl-5-trifluoromethyl-1H-indazol-3-ylamino)-acetamide]
4.8	CN(C)c1cccc(C2(O)CCC(N3CC(NC(=O)CNc4nn(C)c5ccc(C(F)(F)F)cc45)C3)CC2)c1 (stereo not drawn) [Example 20, N-{1-[4-(3-Dimethylamino-phenyl)-4-hydroxy-cyclohexyl]-azetidin-3-yl}-2-(1-methyl-5-trifluoromethyl-1H-indazol-3-ylamino)-acetamide]
